Key:
Type in all cases: in vivo
[1] = tested on: galium (catchweed bedstraw, Galium aparine); assay: Test A greenhouse herbicide test, postemergence
How it was run: (§1)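 Visual injury score, 0 (no effect) to 100 (complete control), versus untreated controls roughly 10 d after postemergence spray; plants at one- to two-leaf stage, 2 to 10 cm tall, in loam soil and sand, kept in greenhouse.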

[2] = tested on: blackgrass (Alopecurus myosuroides); assay: Test A greenhouse herbicide test, postemergence
How it was run: as §1

[3] = tested on: rice (Oryza sativa); assay: Test B flooded paddy test; settings: 250 g ai/ha, Flood, visual rating on scale of 0 to 100 where 0 is no effect and 100 is complete control, 13 to 15 d after treatment
How it was run: (§2)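 Plants grown to the 2-leaf stage. At treatment, pots were flooded to 3 cm above the soil, compound was applied directly to the paddy water, and that depth was held throughout. After 13 to 15 d in the greenhouse, response was rated visually against controls on a 0 (no effect) to 100 (complete control) scale.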

[4] = tested on: sedge, umbrella (small-flower umbrella sedge, Cyperus difformis); assay: Test B flooded paddy test; settings: 250 g ai/ha, Flood, visual rating on scale of 0 to 100 where 0 is no effect and 100 is complete control, 13 to 15 d after treatment
How it was run: as §2

[5] = tested on: ducksalad (Heteranthera limosa); assay: Test B flooded paddy test; settings: 250 g ai/ha, Flood, visual rating on scale of 0 to 100 where 0 is no effect and 100 is complete control, 13 to 15 d after treatment
How it was run: as §2

[6] = tested on: barnyardgrass (Echinochloa crus-galli); assay: Test B flooded paddy test; settings: 250 g ai/ha, Flood, visual rating on scale of 0 to 100 where 0 is no effect and 100 is complete control, 13 to 15 d after treatment
How it was run: as §2

[7] = tested on: oat, wild (wild oat, Avena fatua); assay: Test C greenhouse herbicide test, postemergence
How it was run: (§3)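 Steps: pot plants in peat-based medium; spray postemergence at 1- to 4-leaf stage; hold in greenhouse 13 to 15 d; score visually against controls from 0 (no effect) to 100 (complete control).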

[8] = tested on: chickweed (common chickweed, Stellaria media); assay: Test C greenhouse herbicide test, postemergence
How it was run: as §3

[9] = 125 g ai/ha, 0 to 100 scale where 0 is no effect and 100 is complete control
[10] = 500 g ai/ha, visual rating after approx. 10 d, 0 to 100 scale (0 no effect, 100 complete control)
[11] = Postemergence, 31 g ai/ha, scale 0 to 100 (0 no effect, 100 complete control)
[12] = Postemergence, 62 g ai/ha, 0 to 100 scale (0 no effect, 100 complete control)
[13] = Postemergence, 250 g ai/ha, scale 0 to 100, 0 no effect, 100 complete control, 13 to 15 d
[14] = postemergence, 125 g ai/ha, scale 0 to 100, 0 no effect, 100 complete control
[15] = 125 g ai/ha, 0 to 100 scale, 0 no effect, 100 complete control
[16] = Postemergence, 250 g ai/ha, scale 0 to 100, 0 is no effect, 100 is complete control
[17] = 125 g ai/ha, visual rating after approx. 10 d, 0 to 100 scale (0 no effect, 100 complete control)
[18] = 500 g ai/ha, 0 to 100 scale, 0 is no effect, 100 is complete control
[19] = Postemergence, 31 g ai/ha, 0 to 100 scale (0 no effect, 100 complete control)
[20] = Postemergence, 125 g ai/ha, scale 0 to 100, 0 is no effect, 100 is complete control
[21] = postemergence, 62 g ai/ha, scale 0 to 100, 0 no effect, 100 complete control
[22] = 1000 g ai/ha, 0 to 100 scale, 0 is no effect, 100 is complete control

SMILES	Plant response rating, Galium [1, 9]	Plant response rating, Galium [1, 10]	Plant response rating, Blackgrass [2, 9]	Plant response rating, Blackgrass [2, 10]	Plant response rating, Rice [3]	Plant response rating, Sedge, Umbrella [4]	Plant response rating, Ducksalad [5]	Plant response rating, Barnyardgrass [6]	Plant response rating, Oat, Wild [7, 11]	Oat, Wild plant response rating [7, 12]	Plant response rating, Oat, Wild [7, 13]	Plant response rating, Chickweed [8, 13]	Galium plant response rating [1, 18]	Blackgrass plant response rating [2, 18]	Oat, Wild plant response rating [7, 19]	Plant response rating, Oat, Wild [7, 20]	Oat, Wild plant response rating [7, 21]	Chickweed plant response rating [8, 19]	Plant response rating, Chickweed [8, 20]	Chickweed plant response rating [8, 21]	other results
Cc1nn(C)c(=O)c(-c2cccc3ccc(C#N)cc23)c1O [Compound 127]	90	100	20	50	0	0	0	0	10	20	60	95									Oat, Wild plant response rating [7, 14]: 55; Plant response rating, Chickweed [8, 11]: 50; Chickweed plant response rating [8, 12]: 90; Chickweed plant response rating [8, 14]: 90
CC(=O)Oc1c(C)nn(C)c(=O)c1-c1c([N+](=O)[O-])ccc2ccccc12 [Compound 164]		100		40	0	0	0	0	35	45											Plant response rating, Galium [1, 15]: 80; Plant response rating, Blackgrass [2, 15]: 20; Plant response rating, Oat, Wild [7, 16]: 80; Oat, Wild plant response rating [7, 14]: 70; Plant response rating, Chickweed [8, 11]: 80; Chickweed plant response rating [8, 12]: 90; Plant response rating, Chickweed [8, 16]: 98; Chickweed plant response rating [8, 14]: 95
COc1nn(C)c(=O)c(-c2c(C)ccc3ccccc23)c1OC(=O)OC(C)C [Compound 36]					20	70	30	0			85	95	100	80	50	65	60	80	95	95	Plant response rating, Galium [1, 17]: 100; Plant response rating, Blackgrass [2, 17]: 60
CC(=O)Oc1c(C)nn(C)c(=O)c1-c1c(C)oc2c(C)cc(C)cc12 [Compound 16, 5-(acetyloxy)-2,6-dimethyl-4-(2,5,7-trimethyl-3-benzofuranyl)-3(2H)-pyridazinone]											40	90			5	10	5	75	90	80	pest or weed control at 125 g/ha ([1]; Galium, post-emergence, 240 h, 125 g ai/ha, visual rating after approx. 10 d, 0 to 100 scale (0 no effect, 100 complete control), read-out: Plant response rating, Galium): 90%; pest or weed control at 500 g/ha ([1]; Galium, post-emergence, 240 h, 500 g ai/ha, 0 to 100 scale, 0 is no effect, 100 is complete control, read-out: Galium plant response rating): 100%; pest or weed control at 125 g/ha ([2]; Alopecurus myosuroides, post-emergence, 240 h, 125 g ai/ha, visual rating after approx. 10 d, 0 to 100 scale (0 no effect, 100 complete control), read-out: Plant response rating, Blackgrass): 10%; pest or weed control at 500 g/ha ([2]; Alopecurus myosuroides, post-emergence, 240 h, 500 g ai/ha, 0 to 100 scale, 0 is no effect, 100 is complete control, read-out: Blackgrass plant response rating): 30%; plant injury at 250 g/ha ([3]; Oryza sativa, 360 h, read-out: Plant response rating, Rice): 0%; pest or weed control at 250 g/ha ([4]; Cyperus difformis, 360 h, read-out: Plant response rating, Sedge, Umbrella): 0%; pest or weed control at 250 g/ha ([5]; Heteranthera limosa, 360 h, read-out: Plant response rating, Ducksalad): 30%; pest or weed control at 250 g/ha ([6]; Echinochloa crus-galli, 360 h, read-out: Plant response rating, Barnyardgrass): 0%
Cc1ccc2ccccc2c1-c1c(O)c(C)nn(C)c1=O [Compound 59]	100		90		0	0	0	0			98	98	100	100	80	90	75	90	98	98	
Cc1ccc2ccc(C)c(-c3c(O)c(C)nn(C)c3=O)c2c1 [Compound 60]					35	30	20	35			95	98			85	95	95	90	95	95	Galium plant response rating [1, 22]: 100; Blackgrass plant response rating [2, 22]: 90
Cc1cc(C)c2ccccc2c1-c1c(OS(C)(=O)=O)c(C)nn(C)c1=O [Compound 154]		100		90	50	80	60	50	55	80	90	95									Plant response rating, Galium [1, 15]: 100; Plant response rating, Blackgrass [2, 15]: 70; Oat, Wild plant response rating [7, 14]: 90; Plant response rating, Chickweed [8, 11]: 90; Chickweed plant response rating [8, 12]: 90; Chickweed plant response rating [8, 14]: 90
Cc1nn(C)c(=O)c(-c2c(C)sc3ccccc23)c1O [Compound 65]	90		20		0	0	0	0			70	90	100	70	25	50	35	55	90	90	
COc1nn(C)c(=O)c(-c2c(C)ccc3ccccc23)c1O [Compound 54]	100		20		0	0	0	0			85	100	100	40	45	60	50	95	95	95	

Source: US10597388B2, “Pyridazinone herbicides” (FMC CORPORATION, priority 2014, dated 2020)
